Experimental data: US10039283B2, “Substituted pyrazolyl-nicotin(thio)amide derivatives and their use as fungicides” (BAYER CROPSCIENCE AKTIENGESELLSCHAFT, priority 2014, dated 2018)

Assay: Log P by HPLC on reversed phase, method [a], acidic range (0.1% formic acid)
Type: physicochemical
Conditions: LC-UV, 0.1% formic acid in water and acetonitrile

Row | LogP | SMILES
1 | 2.01^[a] | Cc1c(NC(=O)c2cccnc2C(F)F)cnn1CCC(C)C [Example 2]
2 | 3.51^[a] | CC(C)c1cccc(-n2ncc(NC(=O)c3cccnc3C(F)F)c2C(F)(F)F)c1 [Example 3]
3 | 2.44^[a] | Cc1cnc(C(F)F)c(C(=O)Nc2cnn(-c3ccccc3)c2C(F)(F)F)c1 [Example 4]
4 | 2.25^[a] | Cc1c(NC(=O)c2cccnc2C(F)F)cnn1-c1cccc(Cl)c1 [Example 5]
5 | 1.63^[a] | Cc1c(NC(=O)c2cccnc2C(F)F)cnn1C(C)(C)C [Example 6]
6 | 1.69^[a] | CCCCn1ncc(NC(=O)c2cccnc2C(F)F)c1C [Example 7]
7 | 1.89^[a] | CCC(CC)n1ncc(NC(=O)c2cccnc2C(F)F)c1C [Example 8]
8 | 2.53^[a] | O=C(Nc1cnn(-c2ccccc2)c1C(F)(F)F)c1cccnc1C(F)F [Example 9]
9 | 3.02^[a] | O=C(Nc1cnn(-c2ccc(Cl)cc2)c1C(F)(F)F)c1cccnc1C(F)F [Example 10]
10 | 1.83^[a] | Cc1c(NC(=O)c2cccnc2C(F)F)cnn1C1CCCC1 [Example 11]
11 | 1.78^[a] | Cc1c(NC(=O)c2cccnc2C(F)F)cnn1-c1ccccc1 [Example 12]
12 | 2.25^[a] | Cc1ccc(C)c(-n2ncc(NC(=O)c3cccnc3C(F)F)c2C)c1 [Example 13]
13 | 1.68^[a] | CC(C)n1ncc(NC(=O)c2cccnc2C(F)F)c1C1CC1 [Example 14]
14 | 1.99^[a] | Cc1nn(-c2cccc(F)c2)c(C)c1NC(=O)c1cccnc1C(F)F [Example 15]
15 | 2.27^[a] | Cc1nn(-c2cccc(F)c2)c(C)c1NC(=O)c1cccnc1C(F)(F)F [Example 16]
16 | 1.81^[a] | Cc1nn(-c2ccccc2)c(C)c1NC(=O)c1cccnc1C(F)F [Example 17]
17 | 2.07^[a] | Cc1nn(-c2ccccc2)c(C)c1NC(=O)c1cccnc1C(F)(F)F [Example 18]
18 | 2.69^[a] | O=C(Nc1cnn(-c2ccc(Cl)cc2)c1C(F)F)c1cccnc1C(F)F [Example 23]
19 | 2.69^[a] | O=C(Nc1cnn(-c2cccc(Cl)c2)c1C(F)F)c1cccnc1C(F)F [Example 24]
20 | 2.37^[a] | O=C(Nc1cnn(-c2cccc(F)c2)c1C(F)F)c1cccnc1C(F)F [Example 25]
21 | 2.48^[a] | O=C(Nc1cnn(-c2cccc(C(F)F)c2)c1C(F)F)c1cccnc1C(F)F [Example 26]
22 | 2.37^[a] | Cc1ccccc1-n1ncc(NC(=O)c2cccnc2C(F)F)c1C(F)F [Example 27]
23 | 2.80^[a] | O=C(Nc1cnn(-c2ccc(Br)cc2)c1C(F)F)c1cccnc1C(F)F [Example 28]
24 | 2.62^[a] | O=C(Nc1cnn(-c2cc(F)cc(F)c2)c1C(F)F)c1cccnc1C(F)F [Example 29]
25 | 2.88^[a] | O=C(Nc1cnn(-c2cccc(C(F)(F)F)c2)c1C(F)F)c1cccnc1C(F)F [Example 30]
26 | 2.51^[a] | O=C(Nc1cnn(-c2ccccc2C(F)(F)F)c1C(F)F)c1cccnc1C(F)F [Example 31]
27 | 2.20^[a] | O=C(Nc1cnn(-c2ccc(F)cc2)c1C(F)F)c1cccnc1C(F)F [Example 32]

Row | LogP | SMILES
28 | 2.32^[a] | O=C(Nc1cnn(-c2ccccc2F)c1C(F)F)c1cccnc1C(F)F [Example 33]
29 | 2.07^[a] | Cc1nn(-c2ccccc2)c(Br)c1NC(=O)c1cccnc1C(F)F [Example 35]
30 | 1.90^[a] | Cc1cnc(C(F)F)c(C(=O)Nc2cnn(C(C)(C)C)c2C)c1 [Example 36]
31 | 2.25^[a] | Cc1c(NC(=O)c2ccc(Cl)nc2C(F)F)cnn1C(C)(C)C [Example 37]
32 | 2.12^[a] | CCC(CC)n1ncc(NC(=O)c2cc(C)cnc2C(F)F)c1C [Example 38]
33 | 2.51^[a] | CCC(CC)n1ncc(NC(=O)c2ccc(Cl)nc2C(F)F)c1C [Example 39]
34 | 2.09^[a] | Cc1cnc(C(F)F)c(C(=O)Nc2cnn(C3CCCC3)c2C)c1 [Example 40]
35 | 2.46^[a] | Cc1c(NC(=O)c2ccc(Cl)nc2C(F)F)cnn1C1CCCC1 [Example 41]
36 | 1.95^[a] | Cc1cnc(C(F)F)c(C(=O)Nc2cnn(C(C)C)c2C2CC2)c1 [Example 42]
37 | 2.33^[a] | CC(C)n1ncc(NC(=O)c2ccc(Cl)nc2C(F)F)c1C1CC1 [Example 43]
38 | 2.88^[a] | Cc1ccc(C)c(-n2ncc(NC(=O)c3ccc(Cl)nc3C(F)F)c2C)c1 [Example 45]
39 | 2.25^[a] | Cc1c(NC(=O)c2cccnc2C(F)F)cnn1-c1ccc(Cl)cc1 [Example 46]
40 | 1.94^[a] | Cc1c(NC(=O)c2cccnc2C(F)F)cnn1-c1ccccc1Cl [Example 47]
41 | 2.11^[a] | Cc1cccc(-n2ncc(NC(=O)c3cccnc3C(F)F)c2C)c1 [Example 48]
42 | 2.82^[a] | O=C(Nc1cnn(-c2ccccc2C(F)(F)F)c1C(F)(F)F)c1cccnc1C(F)F [Example 49]
43 | 3.21^[a] | O=C(Nc1cnn(-c2ccc(C(F)(F)F)cc2)c1C(F)(F)F)c1cccnc1C(F)F [Example 50]
44 | 3.48^[a] | O=C(Nc1cnn(-c2cccc(C(F)(F)F)c2)c1-c1cccc(Cl)c1)c1cccnc1C(F)F [Example 53]
45 | 3.31^[a] | O=C(Nc1cnn(-c2cccc(Cl)c2)c1-c1cccc(Cl)c1)c1cccnc1C(F)F [Example 54]
46 | 3.58^[a] | O=C(Nc1cnn(-c2ccc(C(F)(F)F)cc2)c1-c1cccc(Cl)c1)c1cccnc1C(F)F [Example 55]
47 | 3.35^[a] | O=C(Nc1cnn(-c2ccc(Cl)cc2)c1-c1cccc(Cl)c1)c1cccnc1C(F)F [Example 56]
48 | 2.75^[a] | O=C(Nc1cnn(-c2ccccc2F)c1-c1cccc(Cl)c1)c1cccnc1C(F)F [Example 57]
49 | 2.98^[a] | O=C(Nc1cnn(-c2cccc(F)c2)c1-c1cccc(Cl)c1)c1cccnc1C(F)F [Example 58]
50 | 3.09^[a] | O=C(Nc1cnn(-c2cccc(Br)c2)c1C(F)(F)F)c1cccnc1C(F)F [Example 60]
51 | 2.88^[a] | O=C(Nc1cnn(-c2cc(F)cc(F)c2)c1C(F)(F)F)c1cccnc1C(F)F [Example 61]
52 | 2.66^[a] | O=C(Nc1cnn(-c2cccc(F)c2)c1C(F)(F)F)c1cccnc1C(F)F [Example 62]
53 | 3.13^[a] | O=C(Nc1cnn(-c2ccc(Br)cc2)c1C(F)(F)F)c1cccnc1C(F)F [Example 63]
54 | 2.71^[a] | O=C(Nc1cnn(-c2cccc(C(F)F)c2)c1C(F)(F)F)c1cccnc1C(F)F [Example 64]

Row | LogP | SMILES
55 | 2.51^[a] | Cc1cnc(C(F)F)c(C(=O)Nc2cnn(-c3cccc(Cl)c3)c2C)c1 [Example 65]
56 | 2.88^[a] | Cc1c(NC(=O)c2ccc(Cl)nc2C(F)F)cnn1-c1cccc(Cl)c1 [Example 66]
57 | 2.35^[a] | Cc1cccc(-n2ncc(NC(=O)c3cc(C)cnc3C(F)F)c2C)c1 [Example 67]
58 | 2.73^[a] | Cc1cccc(-n2ncc(NC(=O)c3ccc(Cl)nc3C(F)F)c2C)c1 [Example 68]
59 | 2.17^[a] | Cc1cnc(C(F)F)c(C(=O)Nc2cnn(-c3ccccc3Cl)c2C)c1 [Example 69]
60 | 2.56^[a] | Cc1c(NC(=O)c2ccc(Cl)nc2C(F)F)cnn1-c1ccccc1Cl [Example 70]
61 | 2.49^[a] | Cc1cnc(C(F)F)c(C(=O)Nc2cnn(-c3ccc(Cl)cc3)c2C)c1 [Example 71]
62 | 2.86^[a] | Cc1c(NC(=O)c2ccc(Cl)nc2C(F)F)cnn1-c1ccc(Cl)cc1 [Example 72]
63 | 2.71^[a] | Cc1ccccc1-n1ncc(NC(=O)c2cccnc2C(F)F)c1C(F)(F)F [Example 73]
64 | 2.71^[a] | O=C(Nc1cnn(-c2ccccc2Br)c1C(F)(F)F)c1cccnc1C(F)F [Example 74]
65 | 2.08^[a] | Cc1nn(-c2ccccc2)c(Cl)c1NC(=O)c1cccnc1C(F)F [Example 75]
66 | 1.88^[a] | COc1c(NC(=O)c2cccnc2C(F)F)c(C)nn1-c1ccccc1 [Example 76]
67 | 3.06^[a] | O=C(Nc1cnn(-c2ccccc2C(F)(F)F)c1-c1cccc(Cl)c1)c1cccnc1C(F)F [Example 78]
68 | 2.53^[a] | O=C(Nc1cnn(-c2ccccc2Cl)c1-c1ccccc1)c1cccnc1C(F)F [Example 79]
69 | 2.90^[a] | O=C(Nc1cnn(-c2ccccc2Cl)c1-c1ccc(Cl)cc1)c1cccnc1C(F)F [Example 80]
70 | 2.88^[a] | O=C(Nc1cnn(-c2ccccc2Cl)c1-c1cccc(Cl)c1)c1cccnc1C(F)F [Example 81]
71 | 2.66^[a] | O=C(Nc1cnn(-c2ccccc2Cl)c1-c1cccc(F)c1)c1cccnc1C(F)F [Example 82]
72 | 2.66^[a] | O=C(Nc1cnn(-c2ccccc2Cl)c1-c1ccc(F)cc1)c1cccnc1C(F)F [Example 83]
73 | 3.00^[a] | O=C(Nc1cnn(-c2cccc(Cl)c2)c1C(F)(F)F)c1cccnc1C(F)F [Example 84]
74 | 3.19^[a] | O=C(Nc1cnn(-c2cccc(C(F)(F)F)c2)c1C(F)(F)F)c1cccnc1C(F)F [Example 85]
75 | 2.73^[a] | Cc1cccc(-n2ncc(NC(=O)c3cccnc3C(F)F)c2C(F)(F)F)c1 [Example 86]
76 | 2.86^[a] | Cc1ccc(-n2ncc(NC(=O)c3cccnc3C(F)F)c2C(F)(F)F)cc1 [Example 87]
77 | 2.55^[a] | O=C(Nc1cnn(-c2ccccc2F)c1C(F)(F)F)c1cccnc1C(F)F [Example 88]
78 | 2.64^[a] | O=C(Nc1cnn(-c2ccc(F)cc2)c1C(F)(F)F)c1cccnc1C(F)F [Example 89]
79 | 3.55^[a] | CC(C)c1ccc(-n2ncc(NC(=O)c3cccnc3C(F)F)c2C(F)(F)F)cc1 [Example 90]
80 | 2.94^[a] | O=C(Nc1cnn(-c2c(Cl)cccc2Cl)c1C(F)(F)F)c1cccnc1C(F)F [Example 91]

Same assay, conditions: reversed phase HPLC column, LC-UV, 0.1% formic acid in water and acetonitrile

Row | chromatographic logP | SMILES
81 | 2.8 | O=C(Nc1cnn(-c2ccccc2)c1C(F)(F)F)c1ccc(Cl)nc1C(F)F [Example 1, 6-chloro-2-(difluoromethyl)-N-[1-phenyl-5-(trifluoromethyl)-1H-pyrazol-4-yl]nicotinamide]
82 | 2.9 | FC(F)c1cccc(-n2ncc(NC(=S)c3cccnc3C(F)F)c2C(F)F)c1 [Example 34, 2-(difluoromethyl)-N-{5-(difluoromethyl)-1-[3-(difluoromethyl)phenyl]-1H-pyrazol-4-yl}pyridine-3-carbothioamide]
